Here are results for one compound from patent US8722849B2, “Polypeptides” (Novo Nordisk A/S, priority 2011, dated 2014).

Data set [1] has as its target T1, rat calcitonin (a) receptor (Rattus norvegicus, UniProt P32214).
T1 construct: expressed in transfected cells; host or cells: BHK tk'ts 13
T1 sequence (P32214 25-479 isoform P32214-2 limits assumed): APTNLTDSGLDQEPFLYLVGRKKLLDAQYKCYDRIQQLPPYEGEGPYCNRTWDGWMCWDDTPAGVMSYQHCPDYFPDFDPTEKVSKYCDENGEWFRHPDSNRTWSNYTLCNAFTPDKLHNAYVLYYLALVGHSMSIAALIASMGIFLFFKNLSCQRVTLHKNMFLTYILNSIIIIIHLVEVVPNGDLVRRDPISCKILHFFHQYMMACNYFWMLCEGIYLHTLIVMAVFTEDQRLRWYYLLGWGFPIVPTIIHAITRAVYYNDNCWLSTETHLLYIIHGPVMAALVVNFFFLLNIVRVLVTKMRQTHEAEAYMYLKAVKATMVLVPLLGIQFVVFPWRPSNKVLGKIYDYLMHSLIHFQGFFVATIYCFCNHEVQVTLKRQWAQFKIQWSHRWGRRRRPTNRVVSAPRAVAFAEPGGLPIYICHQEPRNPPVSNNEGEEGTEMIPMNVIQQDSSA
The data set is described as follows: Assay (II)b functional cAMP FlashPlate assay, rat calcitonin receptor. It is filed as cell-based. The following applies: Table 11; read-out: CTa receptor rat EC50. The source says: (§1) Assay (II)b—Rat Calcitonin and Rat Amylin Receptor Assays
(§2) Activation of calcitonin and amylin (coexpression of calcitonin receptor and receptor activity modifying proteins (RAMP)) receptors lead to increased intracellular concentrations of cAMP. In order to quantify the cAMP levels in transiently transfected cells the Adenylyl Cyclase Activation FlashPlate® Assay from […] was used. The basic principle of the FlashPlate® Assay is a competition between radioactive and non-radioactive cAMP generated by the cells for a fixed number of binding sites.
(§3) Construction of rat calcitonin(a)—and rat amylin 3(a)-receptor cells.
(§4) BHK tk'ts 13 cells were transiently transfected with either rat calcitonin (a) receptor or amylin 3 (a) receptor (rat calcitonin(a) receptor+ rat RAMP3) using FuGENE® 6 (ROCHE), according to the manufacturers recommendations.
(§5) 24 hours after transient transfection the cells (rat calcitonin(a)—or rat amylin 3(a)—receptor cells) were added (100.000 cells/well) to the 96 well FlashPlates® with samples or standard in FlashPlate stimulation buffer with IBMX and incubated for 30 min. Detection mix was created according to manufacturers protocol and scintillation measured after 3 h of incubation on TopCounter™ (Packard).

Data set [2] has as its target T2, rat amylin 3(a) receptor (rat calcitonin(a) receptor + rat RAMP3) (Rattus norvegicus, UniProt P32214+Q9JJ73).
T2 construct: expressed in transfected cells; host or cells: BHK tk'ts 13
T2 sequence (P32214 25-479 isoform P32214-2 limits assumed): T1 sequence (P32214 25-479 isoform P32214-2 limits assumed)
T2 sequence (Q9JJ73 23-147 partner): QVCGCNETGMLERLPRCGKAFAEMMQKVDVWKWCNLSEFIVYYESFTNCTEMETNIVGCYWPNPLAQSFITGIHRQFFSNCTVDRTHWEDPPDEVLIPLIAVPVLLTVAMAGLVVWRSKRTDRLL
Put plainly: Assay (II)b functional cAMP FlashPlate assay, rat amylin receptor. The following applies: Table 11. It is filed as cell-based.
Source text: as §1, §2, §3, §4, §5

The target in data set [3] is T3, human amylin receptor (amylin 3(a) receptor: human calcitonin receptor + RAMP-3) (Homo sapiens, UniProt O60896+P30988).
T3 construct: expressed in transfected cells; host or cells: BHK570
T3 sequence (P30988 25-474): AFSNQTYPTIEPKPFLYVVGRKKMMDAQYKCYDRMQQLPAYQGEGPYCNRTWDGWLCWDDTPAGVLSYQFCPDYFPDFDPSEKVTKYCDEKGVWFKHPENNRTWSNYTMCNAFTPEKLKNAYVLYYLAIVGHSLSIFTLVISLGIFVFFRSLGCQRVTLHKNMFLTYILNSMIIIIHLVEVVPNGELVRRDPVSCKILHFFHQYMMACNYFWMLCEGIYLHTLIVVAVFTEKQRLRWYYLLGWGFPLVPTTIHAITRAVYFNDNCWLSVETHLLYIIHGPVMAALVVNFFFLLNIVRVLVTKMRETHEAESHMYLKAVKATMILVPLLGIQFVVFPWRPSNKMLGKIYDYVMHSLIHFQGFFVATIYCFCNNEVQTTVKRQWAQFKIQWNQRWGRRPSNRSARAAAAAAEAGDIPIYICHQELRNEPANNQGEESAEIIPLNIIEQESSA
T3 sequence (O60896 24-148 partner): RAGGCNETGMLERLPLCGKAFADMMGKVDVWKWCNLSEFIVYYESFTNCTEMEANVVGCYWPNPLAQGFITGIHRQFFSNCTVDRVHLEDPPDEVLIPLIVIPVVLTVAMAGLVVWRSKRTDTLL
Put plainly: Assay (II)a functional CRE-luciferase assay, human amylin receptor. The data set is classed as cell-based. The following applies: Table 2; BHK amylin 3(a)-receptor/CRE-luc cells.

Data set [4] can be described thus: Assay (IV) determination of solubility. It is filed as physicochemical. In a few lines: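 Polypeptide in water (~500 nmol/ml) mixed 1:1 with 100 mM glycylglycine (pH 3.0–5.0) or bistrispropane (pH 6.0–8.0) buffers. Held 18 hours at room temperature, then centrifuged. Polypeptide remaining in solution quantified by HPLC.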
The target in data set [5] is T4, human calcitonin receptor (Homo sapiens, UniProt P30988).
T4 construct: expressed in transfected cells; host or cells: BHK570
T4 sequence (P30988 25-474): T3 sequence (P30988 25-474)
The data set is described as follows: Assay (II)a functional CRE-luciferase assay, human calcitonin receptor. The data set is classed as cell-based. To be noted: Table 7; human calcitonin (CTa) receptor.

SMILES strings stand for the structures. In brackets after ≈: the same amount, converted by molar mass. Read-outs that look alike come from different tables or passages of the source. Starred links: 1 amine or outer side, 2 acyl side, 3 side chain; linkers in the order of their positions; H or OH if unused. Positions of bridges follow the written chain, without caps; N, C: chain ends. Residues, ends and D or L forms follow the SMILES beside them. *: point of attachment. C20 diacid = O=C(O)CCCCCCCCCCCCCCCCCCC(=O)*; γGlu = O=C(O)[C@H](CCC(=O)[*:2])N[*:1]

Regarding `CC(C)C[C@H](NC(=O)[C@H](CCCNC(=N)N)NC(=O)[C@H](CCC(N)=O)NC(=O)[C@@H](NC(=O)[C@H](C)NC(=O)[C@@H]1CSSC[C@H](NC(=O)[C@H](Cc2c[nH]cn2)NC(=O)[C@H](Cc2c[nH]cn2)NC(=O)[C@H](Cc2c[nH]cn2)NC(=O)CC[C@H](NC(=O)CCCCCCCCCCCCCCCCCCC(=O)O)C(=O)O)C(=O)N[C@@H](CC(N)=O)C(=O)N[C@@H]([C@@H](C)O)C(=O)N[C@@H](C)C(=O)N[C@@H]([C@@H](C)O)C(=O)N1)[C@@H](C)O)C(=O)N[C@@H](C)C(=O)N[C@@H](CCC(=O)O)C(=O)N[C@@H](Cc1ccccc1)C(=O)N[C@@H](CC(C)C)C(=O)N[C@@H](Cc1c[nH]cn1)C(=O)N[C@@H](Cc1c[nH]cn1)C(=O)N[C@@H](CO)C(=O)N[C@@H](CO)C(=O)N[C@@H](CC(N)=O)C(=O)N[C@@H](CC(N)=O)C(=O)N[C@@H](Cc1ccccc1)C(=O)NCC(=O)N[C@@H](C)C(=O)N1CCC[C@H]1C(=O)N[C@@H](CC(C)C)C(=O)N[C@@H](CO)C(=O)N[C@@H](CO)C(=O)N[C@H](C(=O)N[C@@H](CC(N)=O)C(=O)N[C@H](C(=O)NCC(=O)N[C@@H](CO)C(=O)N[C@@H](CC(N)=O)C(=O)N[C@H](C(=O)N[C@@H](Cc1ccc(O)cc1)C(N)=O)[C@@H](C)O)C(C)C)[C@@H](C)O` [Example 19, N-alpha-[(S)-4-Carboxy-4-(19-carboxynonadecanoylamino)butyryl]-His-His-[His1,Glu14,His17,Ala25,Pro26,Ser28,Ser29]-pramlintide] ({C20 diacid-γGlu}-HHHCNTATCATQRLAEFLHHSSNNFGAPLSSTNVGSNTY-NH2; disulfide 4-9 (inferred); C-terminus assumed), the EC50 in data set [1] stood at 0.824 nM; in data set [2] it was 0.132 nM; in data set [3], 0.105 nM; in data set [5], 0.31 nM. Moreover, the solubility at 18 h in data set [4] (bistrispropane buffer, pH 6, pH 6.0, read-out: Solubility pH 6.0) is 175 µM (≈ 819 µg/mL); in data set [4] (bistrispropane buffer, pH 6.5, pH 6.5, read-out: Solubility pH 6.5), 35 µM (≈ 164 µg/mL); in data set [4] (bistrispropane buffer, pH 7, pH 7.0, read-out: Solubility pH 7.0), 6 µM (≈ 28.1 µg/mL); in data set [4] (bistrispropane buffer, pH 7.5, pH 7.5, read-out: Solubility pH 7.5) it was 61 µM (≈ 285 µg/mL); in data set [4] (bistrispropane buffer, pH 8, pH 8.0, read-out: Solubility pH 8.0) it was 158 µM (≈ 739 µg/mL); in data set [4] (glycylglycine buffer, pH 3, pH 3.0, read-out: Solubility pH 3.0), > 200 µM. The solubility at 18 h in data set [4] (glycylglycine buffer, pH 4, pH 4.0, 18 hours at room temperature, Table 2, read-out: Solubility pH 4.0) is > 200 µM; in data set [4] (glycylglycine buffer, pH 4, pH 4.0, read-out: Solubility pH 4.0), > 200 µM; in data set [4] (glycylglycine buffer, pH 5, pH 5.0, read-out: Solubility pH 5.0) it was 155 µM (≈ 725 µg/mL).

One may read the EC50 as the concentration at which the effect is half-maximal. As a reminder, the solubility is the dissolved amount per volume that the medium holds.
